According to PubChem BioAssay (NCI):
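In this assay, cells in 96-well plates receive the compound at five concentrations for 48 hours. Endpoints are linearly interpolated between the surrounding concentrations. TGI: concentration producing complete growth inhibition.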

Legend:
Test in all cases: NCI-60 cell line screen, 48 h
MALME-3M melanoma = system: MALME-3M melanoma
A549 NSCLC = system: A549 NSCLC
HOP-92 NSCLC = system: HOP-92 NSCLC
HCT-116 colon = system: HCT-116 colon
NCI-H460 lung = system: NCI-H460 lung
U251 CNS = system: U251 CNS
OVCAR-5 ovarian = system: OVCAR-5 ovarian
SF-268 CNS = system: SF-268 CNS
786-0 renal = system: 786-0 renal
HS 578T breast = system: HS 578T breast
MDA-MB-231 breast = system: MDA-MB-231 breast
SK-OV-3 ovarian = system: SK-OV-3 ovarian
OVCAR-3 ovarian = system: OVCAR-3 ovarian
OVCAR-8 ovarian = system: OVCAR-8 ovarian
T-47D breast = system: T-47D breast
NCI/ADR-RES ovarian = system: NCI/ADR-RES ovarian
KM12 colon = system: KM12 colon
SNB-19 CNS = system: SNB-19 CNS
LOX IMVI melanoma = system: LOX IMVI melanoma
OVCAR-4 ovarian = system: OVCAR-4 ovarian
SNB-75 CNS = system: SNB-75 CNS
SR leukemia = system: SR leukemia
NCI-H522 lung = system: NCI-H522 lung
MDA-N = system: MDA-N
PC-3 prostate = system: PC-3 prostate
MOLT-4 leukemia = system: MOLT-4 leukemia
NCI-H23 lung = system: NCI-H23 lung
MCF7 breast = system: MCF7 breast
SN12C renal = system: SN12C renal
RXF 393 renal = system: RXF 393 renal
MDA-MB-435 = system: MDA-MB-435
M14 melanoma = system: M14 melanoma
SF-539 CNS = system: SF-539 CNS
SK-MEL-28 melanoma = system: SK-MEL-28 melanoma
UO-31 renal = system: UO-31 renal
SW-620 colon = system: SW-620 colon
HT29 colon = system: HT29 colon
HL-60(TB) leukemia = system: HL-60(TB) leukemia
TK-10 renal = system: TK-10 renal
DU-145 prostate = system: DU-145 prostate
CAKI-1 renal = system: CAKI-1 renal
K-562 leukemia = system: K-562 leukemia
HCC-2998 colon = system: HCC-2998 colon
HOP-62 NSCLC = system: HOP-62 NSCLC
CCRF-CEM leukemia = system: CCRF-CEM leukemia
IGROV1 ovarian = system: IGROV1 ovarian
COLO 205 colon = system: COLO 205 colon
EKVX NSCLC = system: EKVX NSCLC
NCI-H226 lung = system: NCI-H226 lung
RPMI-8226 leukemia = system: RPMI-8226 leukemia
UACC-62 melanoma = system: UACC-62 melanoma
SK-MEL-2 melanoma = system: SK-MEL-2 melanoma
ACHN renal = system: ACHN renal
A498 renal = system: A498 renal
SK-MEL-5 melanoma = system: SK-MEL-5 melanoma
SF-295 CNS = system: SF-295 CNS
HCT-15 colon = system: HCT-15 colon
BT-549 breast = system: BT-549 breast
UACC-257 melanoma = system: UACC-257 melanoma

For `OC1CN=C2c3ccccc3C(O)(c3ccc(Cl)cc3)N2C1` (configuration not stated), the TGI (MALME-3M melanoma) was greater than 100 µM, the TGI (A549 NSCLC) was greater than 100 µM and the TGI (HOP-92 NSCLC) was 94.6 µM. The TGI (HCT-116 colon) was greater than 100 µM, the TGI (NCI-H460 lung) was greater than 100 µM and the TGI (U251 CNS) was greater than 100 µM. For the same molecule, the TGI (OVCAR-5 ovarian) was greater than 100 µM, the TGI (SF-268 CNS) was greater than 100 µM and the TGI (786-0 renal) was greater than 100 µM. For the same molecule, the TGI (HS 578T breast) was greater than 100 µM, the TGI (MDA-MB-231 breast) was greater than 100 µM and the TGI (SK-OV-3 ovarian) was greater than 100 µM. The TGI (OVCAR-3 ovarian) was greater than 100 µM, the TGI (OVCAR-8 ovarian) was greater than 100 µM and the TGI (T-47D breast) was greater than 100 µM. The TGI (NCI/ADR-RES ovarian) was greater than 100 µM, the TGI (KM12 colon) was greater than 100 µM and the TGI (SNB-19 CNS) was greater than 100 µM. The TGI (LOX IMVI melanoma) was greater than 100 µM, the TGI (OVCAR-4 ovarian) was greater than 100 µM and the TGI (SNB-75 CNS) was 91.9 µM. For the same molecule, the TGI (SR leukemia) was greater than 100 µM, the TGI (NCI-H522 lung) was greater than 100 µM and the TGI (MDA-N) was greater than 100 µM. It also gave a TGI (PC-3 prostate) greater than 100 µM, a TGI (MOLT-4 leukemia) greater than 100 µM and a TGI (NCI-H23 lung) greater than 100 µM. It also gave a TGI (MCF7 breast) greater than 100 µM, a TGI (SN12C renal) greater than 100 µM and a TGI (RXF 393 renal) greater than 100 µM. For the same molecule, the TGI (MDA-MB-435) was greater than 100 µM, the TGI (M14 melanoma) was 30.4 µM and the TGI (SF-539 CNS) was greater than 100 µM. It also gave a TGI (SK-MEL-28 melanoma) greater than 100 µM, a TGI (UO-31 renal) greater than 100 µM and a TGI (SW-620 colon) greater than 100 µM. The TGI (HT29 colon) was greater than 100 µM, the TGI (HL-60(TB) leukemia) was greater than 100 µM and the TGI (TK-10 renal) was 65.7 µM. It also gave a TGI (DU-145 prostate) greater than 100 µM, a TGI (CAKI-1 renal) greater than 100 µM and a TGI (K-562 leukemia) greater than 100 µM. The TGI (HCC-2998 colon) was 35.5 µM, the TGI (HOP-62 NSCLC) was greater than 100 µM and the TGI (CCRF-CEM leukemia) was greater than 100 µM. For the same molecule, the TGI (IGROV1 ovarian) was greater than 100 µM, the TGI (COLO 205 colon) was 37.8 µM and the TGI (EKVX NSCLC) was greater than 100 µM. The TGI (NCI-H226 lung) was greater than 100 µM, the TGI (RPMI-8226 leukemia) was greater than 100 µM and the TGI (UACC-62 melanoma) was greater than 100 µM. It also gave a TGI (SK-MEL-2 melanoma) greater than 100 µM and a TGI (ACHN renal) greater than 100 µM.
`CSc1n[n+](C)cc(N)c1N` showed a TGI (MALME-3M melanoma) greater than 100 µM, a TGI (A549 NSCLC) greater than 100 µM and a TGI (HOP-92 NSCLC) of 98 µM. The TGI (HCT-116 colon) was greater than 100 µM, the TGI (U251 CNS) was greater than 100 µM and the TGI (OVCAR-5 ovarian) was greater than 100 µM. The TGI (786-0 renal) was greater than 100 µM, the TGI (MDA-MB-231 breast) was greater than 100 µM and the TGI (SK-OV-3 ovarian) was greater than 100 µM. It also gave a TGI (OVCAR-3 ovarian) greater than 100 µM, a TGI (OVCAR-8 ovarian) greater than 100 µM and a TGI (T-47D breast) greater than 100 µM. The TGI (NCI/ADR-RES ovarian) was greater than 100 µM, the TGI (KM12 colon) was greater than 100 µM and the TGI (SNB-19 CNS) was 97.7 µM. The TGI (A498 renal) was greater than 100 µM, the TGI (LOX IMVI melanoma) was greater than 100 µM and the TGI (OVCAR-4 ovarian) was greater than 100 µM. It also gave a TGI (SNB-75 CNS) greater than 100 µM, a TGI (SR leukemia) greater than 100 µM and a TGI (NCI-H522 lung) greater than 100 µM. For the same molecule, the TGI (MDA-N) was greater than 100 µM, the TGI (PC-3 prostate) was greater than 100 µM and the TGI (SK-MEL-5 melanoma) was greater than 100 µM. For the same molecule, the TGI (MOLT-4 leukemia) was greater than 100 µM, the TGI (NCI-H23 lung) was greater than 100 µM and the TGI (MCF7 breast) was greater than 100 µM. The TGI (SN12C renal) was greater than 100 µM, the TGI (SF-295 CNS) was greater than 100 µM and the TGI (HCT-15 colon) was greater than 100 µM. The TGI (MDA-MB-435) was greater than 100 µM, the TGI (M14 melanoma) was greater than 100 µM and the TGI (SF-539 CNS) was greater than 100 µM. It also gave a TGI (SK-MEL-28 melanoma) greater than 100 µM, a TGI (UO-31 renal) greater than 100 µM and a TGI (SW-620 colon) greater than 100 µM. The TGI (HT29 colon) was greater than 100 µM, the TGI (HL-60(TB) leukemia) was greater than 100 µM and the TGI (TK-10 renal) was greater than 100 µM. It also gave a TGI (CAKI-1 renal) greater than 100 µM, a TGI (K-562 leukemia) greater than 100 µM and a TGI (HCC-2998 colon) greater than 100 µM. The TGI (HOP-62 NSCLC) was greater than 100 µM, the TGI (CCRF-CEM leukemia) was greater than 100 µM and the TGI (IGROV1 ovarian) was greater than 100 µM. The TGI (COLO 205 colon) was greater than 100 µM, the TGI (EKVX NSCLC) was greater than 100 µM and the TGI (NCI-H226 lung) was greater than 100 µM. For the same molecule, the TGI (RPMI-8226 leukemia) was greater than 100 µM, the TGI (UACC-62 melanoma) was greater than 100 µM and the TGI (BT-549 breast) was greater than 100 µM. It also gave a TGI (SK-MEL-2 melanoma) greater than 100 µM, a TGI (ACHN renal) greater than 100 µM and a TGI (UACC-257 melanoma) greater than 100 µM.
